Data on seven sequences can be found in patent publication US7311914B2, “MAGE-A4 antigenic peptides and uses thereof” (Ludwig Institute for Cancer Research, priority 2002, dated 2007).

For the assay, the system named is CTL F2. Put plainly: Peptide recognition assay: 51Cr release lysis by CTL F2 of peptide-pulsed autologous EBV-B cells. To be noted: for lysis by CTL F2 of autologous EBV-B cells incubated with peptide (first screening of 16 amino-acid long peptides, FIG. 3A): 1 μg/ml of each peptide, E:T ratio 5:1, chromium release after 4 h; for EC50: CTL F2, E:T 5:1, 4 h chromium release (FIG. 3B), read-out: peptide concentration giving half maximal lysis of autologous EBV-B target cells; for recognition by CTL F2 of peptides of different lengths (peptide titration, FIG. 3B): autologous EBV-B targets, 3-fold peptide dilutions, HPLC purified peptides; for recognition by CTL F2 of peptides of different lengths (peptide titration, FIG. 3B) / recognition by CTL F2 of targets pulsed with peptides modified at the C-terminus (FIG. 3C): E:T 5:1, 4 h; for recognition by CTL F2 of targets pulsed with peptides modified at the C-terminus (FIG. 3C): very high and most probably not physiological concentration of peptide. The assay is classed as cell-based, human.

On to “FPVIFGKASESLKMIF (listed as Homo sapiens) [16-mer MAGE-A4 peptide, amino acids 148-163]”, for which the “lysis by CTL F2 of autologous EBV-B cells incubated with peptide (first screening of 16 amino-acid long peptides, FIG. 3A)” value is on record as “scored positive”. As to SESLKMIF, the EC50 was 1 nM and the “recognition by CTL F2 of peptides of different lengths (peptide titration, FIG. 3B)” value is listed as “scored positive”.

“SESLKMIFG (listed as Homo sapiens) [MAGE-A4 nonapeptide]”: the “recognition by CTL F2 of peptides of different lengths (peptide titration, FIG. 3B)” value is on record as “not recognized”. As to SESLKMIFGI, the EC50 amounted to 1 nM and the “recognition by CTL F2 of peptides of different lengths (peptide titration, FIG. 3B)” value is “scored positive”. Regarding “SESLKMIFGIDVKEVD (listed as Homo sapiens) [16-mer MAGE-A4 peptide, amino acids 156-171]”, the “lysis by CTL F2 of autologous EBV-B cells incubated with peptide (first screening of 16 amino-acid long peptides, FIG. 3A)” value is listed as “scored positive”. “SESLKMIFI (listed as Homo sapiens) [nonapeptide with C-terminal G replaced by I]”: the “recognition by CTL F2 of targets pulsed with peptides modified at the C-terminus (FIG. 3C)” value is on record as “recognized”. Still for that read-out and setting: the same measure for “SESLKMIFL (listed as Homo sapiens) [nonapeptide with C-terminal G replaced by L]”: “recognized”.
